In PubChem BioAssay (NCI):
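Each compound was tested at five concentrations against cells in 96-well plates for 48 hours. GI50 = concentration required for 50% inhibition of growth. The concentration for full growth arrest is given as TGI.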

Columns and labels:
Assay in all cases: inhibition of tumour cell growth, NCI panel, 48 h
[1] = system: 786-0 renal
[2] = system: A498 renal
[3] = system: A549 NSCLC
[4] = system: ACHN renal
[5] = system: BT-549 breast
[6] = system: CAKI-1 renal
[7] = system: CCRF-CEM leukemia
[8] = system: COLO 205 colon
[9] = system: DU-145 prostate
[10] = system: EKVX NSCLC
[11] = system: HCC-2998 colon
[12] = system: HCT-116 colon
[13] = system: HCT-15 colon
[14] = system: HL-60(TB) leukemia
[15] = system: HOP-62 NSCLC
[16] = system: HOP-92 NSCLC
[17] = system: HS 578T breast
[18] = system: HT29 colon
[19] = system: IGROV1 ovarian
[20] = system: K-562 leukemia
[21] = system: KM12 colon
[22] = system: LOX IMVI melanoma
[23] = system: M14 melanoma
[24] = system: MALME-3M melanoma
[25] = system: MCF7 breast
[26] = system: MDA-MB-231 breast
[27] = system: MDA-MB-435
[28] = system: MOLT-4 leukemia
[29] = system: NCI-H226 lung
[30] = system: NCI-H23 lung
[31] = system: NCI-H460 lung
[32] = system: NCI-H522 lung
[33] = system: NCI/ADR-RES ovarian
[34] = system: OVCAR-3 ovarian
[35] = system: OVCAR-4 ovarian
[36] = system: OVCAR-5 ovarian
[37] = system: OVCAR-8 ovarian
[38] = system: PC-3 prostate
[39] = system: RPMI-8226 leukemia
[40] = system: RXF 393 renal
[41] = system: SF-268 CNS
[42] = system: SF-295 CNS
[43] = system: SF-539 CNS
[44] = system: SK-MEL-2 melanoma
[45] = system: SK-MEL-28 melanoma
[46] = system: SK-MEL-5 melanoma
[47] = system: SK-OV-3 ovarian
[48] = system: SN12C renal
[49] = system: SNB-19 CNS
[50] = system: SNB-75 CNS
[51] = system: SR leukemia
[52] = system: SW-620 colon
[53] = system: T-47D breast
[54] = system: TK-10 renal
[55] = system: U251 CNS
[56] = system: UACC-257 melanoma
[57] = system: UACC-62 melanoma
[58] = system: UO-31 renal

COCC(=O)NC/C=C/c1ccc2ncnc(Nc3ccc(Oc4ccc(C)nc4)c(C)c3)c2c1
GI50 [1]: 15.1 µM | TGI [1]: 42 µM | GI50 [2]: 4.13 µM | TGI [2]: 32.6 µM | GI50 [3]: 13.8 µM | TGI [3]: > 100 µM | GI50 [4]: 3.98 µM | TGI [4]: 69.3 µM | GI50 [5]: 6.81 µM | TGI [5]: 24.9 µM | GI50 [6]: 3.31 µM | TGI [6]: 49.5 µM | GI50 [7]: 14 µM | TGI [7]: > 79.9 µM | GI50 [8]: 6 µM | TGI [8]: 25.6 µM | GI50 [9]: 9.54 µM | TGI [9]: > 100 µM | GI50 [10]: 4.16 µM | TGI [10]: 48.7 µM | GI50 [11]: 20.1 µM | TGI [11]: 39.7 µM | GI50 [12]: 13.7 µM | TGI [12]: 30.9 µM | GI50 [13]: 9.36 µM | TGI [13]: 74.2 µM | GI50 [14]: 21.9 µM | TGI [14]: 59 µM | GI50 [15]: 22.4 µM | TGI [15]: 71 µM | GI50 [16]: 6.48 µM | TGI [16]: 36.3 µM | GI50 [17]: 17.2 µM | TGI [17]: 56.1 µM | GI50 [18]: 15.5 µM | TGI [18]: 39.4 µM | GI50 [19]: 15.9 µM | TGI [19]: > 89.2 µM | GI50 [20]: 17.8 µM | TGI [20]: > 91.4 µM | GI50 [21]: 18.7 µM | TGI [21]: 53 µM | GI50 [22]: 15 µM | TGI [22]: 33.8 µM | GI50 [23]: 11.4 µM | TGI [23]: 31 µM | GI50 [24]: 14.4 µM | TGI [24]: 35.4 µM | GI50 [25]: 4.11 µM | TGI [25]: 32.5 µM | GI50 [26]: 12.7 µM | TGI [26]: 36.1 µM | GI50 [27]: 11.4 µM | TGI [27]: 29.9 µM | GI50 [28]: 13.8 µM | TGI [28]: 53.8 µM | GI50 [29]: 14.8 µM | TGI [29]: 69.3 µM | GI50 [30]: 17.4 µM | TGI [30]: 55.4 µM | GI50 [31]: 4.74 µM | TGI [31]: 22.3 µM | GI50 [32]: 3.4 µM | TGI [32]: 25.8 µM | GI50 [33]: 17.2 µM | TGI [33]: 88.8 µM | GI50 [34]: 10.4 µM | TGI [34]: 28 µM | GI50 [35]: 4.83 µM | TGI [35]: 31.1 µM | GI50 [36]: 12.7 µM | TGI [36]: 35.9 µM | GI50 [37]: 15.9 µM | TGI [37]: 92.4 µM | GI50 [38]: 15.5 µM | TGI [38]: > 83.1 µM | GI50 [39]: 8.75 µM | TGI [39]: 36.1 µM | GI50 [40]: 13.9 µM | TGI [40]: 36.3 µM | GI50 [41]: 15.7 µM | TGI [41]: 50.9 µM | GI50 [42]: 12.5 µM | TGI [42]: 38.1 µM | GI50 [43]: 15.1 µM | TGI [43]: 31.7 µM | GI50 [44]: 18.5 µM | TGI [44]: 41.7 µM | GI50 [45]: 12.9 µM | TGI [45]: 30.6 µM | GI50 [46]: 3.26 µM | TGI [46]: 13 µM | GI50 [47]: 0.295 µM | TGI [47]: 4.52 µM | GI50 [48]: 12 µM | TGI [48]: 35.7 µM | GI50 [49]: 18.4 µM | TGI [49]: > 100 µM | GI50 [50]: 12.5 µM | TGI [50]: 27.2 µM | GI50 [51]: 10.7 µM | TGI [51]: 50.4 µM | GI50 [52]: 17.4 µM | TGI [52]: 40.9 µM | GI50 [53]: 1.19 µM | TGI [53]: 13.6 µM | GI50 [54]: 7.52 µM | TGI [54]: 53.9 µM | GI50 [55]: 13.2 µM | TGI [55]: 31.9 µM | GI50 [56]: 14.9 µM | TGI [56]: 36.1 µM | GI50 [57]: 10.6 µM | TGI [57]: 34 µM | GI50 [58]: 7.8 µM | TGI [58]: 35.9 µM

O=S(=O)(NCCNc1cc(-c2cn(-c3ccccc3)nc2-c2cccc(O)c2)ccn1)c1ccc(Br)cc1
GI50 [1]: 2.17 µM | TGI [1]: 7.78 µM | GI50 [2]: 1.45 µM | TGI [2]: 5.47 µM | GI50 [3]: 3.6 µM | TGI [3]: 15 µM | GI50 [4]: 3.33 µM | TGI [4]: 15.2 µM | GI50 [5]: 2.52 µM | TGI [5]: 6.87 µM | GI50 [6]: 3.42 µM | TGI [6]: 20.4 µM | GI50 [7]: 2.1 µM | TGI [7]: 6.06 µM | GI50 [8]: 1.86 µM | TGI [8]: 3.81 µM | GI50 [9]: 3.02 µM | TGI [9]: 11.6 µM | GI50 [10]: 2.76 µM | TGI [10]: 19.1 µM | GI50 [11]: 2.14 µM | TGI [11]: 4.1 µM | GI50 [12]: 2.44 µM | TGI [12]: 6.48 µM | GI50 [13]: 1.8 µM | TGI [13]: 4.39 µM | GI50 [14]: 2.19 µM | TGI [14]: 5.76 µM | GI50 [15]: 2.35 µM | TGI [15]: 5.99 µM | GI50 [16]: 2 µM | TGI [16]: 5.06 µM | GI50 [17]: 2.35 µM | TGI [17]: 7.71 µM | GI50 [18]: 2.17 µM | TGI [18]: 5.04 µM | GI50 [19]: 3.33 µM | TGI [19]: 15.5 µM | GI50 [20]: 1.98 µM | TGI [20]: 5.49 µM | GI50 [21]: 2.59 µM | TGI [21]: 7.95 µM | GI50 [22]: 1.71 µM | TGI [22]: 3.23 µM | GI50 [23]: 2.02 µM | TGI [23]: 5.04 µM | GI50 [24]: 2.08 µM | TGI [24]: 5.08 µM | GI50 [25]: 2.33 µM | TGI [25]: 6.91 µM | GI50 [26]: 1.9 µM | TGI [26]: 4.59 µM | GI50 [27]: 1.79 µM | TGI [27]: 3.65 µM | GI50 [28]: 2.21 µM | TGI [28]: 5.98 µM | GI50 [29]: 3.15 µM | TGI [29]: 15 µM | GI50 [30]: 2.7 µM | TGI [30]: 11.4 µM | GI50 [31]: 2.39 µM | TGI [31]: 5.76 µM | GI50 [32]: 2.02 µM | TGI [32]: 4.69 µM | GI50 [33]: 3.14 µM | TGI [33]: 12.5 µM | GI50 [34]: 2.01 µM | TGI [34]: 4.09 µM | GI50 [35]: 2.32 µM | TGI [35]: 13.7 µM | GI50 [36]: 2.25 µM | TGI [36]: 5.97 µM | GI50 [37]: 3.47 µM | TGI [37]: 12.6 µM | GI50 [38]: 2.07 µM | TGI [38]: 6.41 µM | GI50 [39]: 2.21 µM | TGI [39]: 5.73 µM | GI50 [40]: 2.38 µM | TGI [40]: 6.96 µM | GI50 [41]: 2.25 µM | TGI [41]: 7.06 µM | GI50 [42]: 1.88 µM | TGI [42]: 3.94 µM | GI50 [43]: 1.81 µM | TGI [43]: 4.24 µM | GI50 [44]: 2.3 µM | TGI [44]: 4.79 µM | GI50 [45]: 2.09 µM | TGI [45]: 4.78 µM | GI50 [46]: 1.64 µM | TGI [46]: 3.03 µM | GI50 [47]: 3.59 µM | TGI [47]: 14.5 µM | GI50 [48]: 2.14 µM | TGI [48]: 4.78 µM | GI50 [49]: 2.89 µM | TGI [49]: 11.1 µM | GI50 [50]: 2.03 µM | TGI [50]: 6.94 µM | GI50 [51]: 1.97 µM | TGI [51]: 5.58 µM | GI50 [52]: 3.04 µM | TGI [52]: 9.68 µM | GI50 [53]: 2.22 µM | TGI [53]: 7.71 µM | GI50 [54]: 2.78 µM | TGI [54]: 9.65 µM | GI50 [55]: 2.21 µM | TGI [55]: 5.64 µM | GI50 [56]: 2.8 µM | TGI [56]: 7.07 µM | GI50 [57]: 1.81 µM | TGI [57]: 3.87 µM | GI50 [58]: 2.19 µM | TGI [58]: 6.96 µM
